Each structure is given as a SMILES string. Like-named read-outs stand apart in the source and are kept apart here.

For the test, the target named is T1, hT1R1/hT1R3 umami receptor (Homo sapiens, UniProt Q7RTX0+Q7RTX1).
T1 construct: expressed in transfected cells; host or cells: HEK293 derivative stably expressing Gα15, clone I-17, expression induced with mifepristone
T1 sequence (Q7RTX1 21-841): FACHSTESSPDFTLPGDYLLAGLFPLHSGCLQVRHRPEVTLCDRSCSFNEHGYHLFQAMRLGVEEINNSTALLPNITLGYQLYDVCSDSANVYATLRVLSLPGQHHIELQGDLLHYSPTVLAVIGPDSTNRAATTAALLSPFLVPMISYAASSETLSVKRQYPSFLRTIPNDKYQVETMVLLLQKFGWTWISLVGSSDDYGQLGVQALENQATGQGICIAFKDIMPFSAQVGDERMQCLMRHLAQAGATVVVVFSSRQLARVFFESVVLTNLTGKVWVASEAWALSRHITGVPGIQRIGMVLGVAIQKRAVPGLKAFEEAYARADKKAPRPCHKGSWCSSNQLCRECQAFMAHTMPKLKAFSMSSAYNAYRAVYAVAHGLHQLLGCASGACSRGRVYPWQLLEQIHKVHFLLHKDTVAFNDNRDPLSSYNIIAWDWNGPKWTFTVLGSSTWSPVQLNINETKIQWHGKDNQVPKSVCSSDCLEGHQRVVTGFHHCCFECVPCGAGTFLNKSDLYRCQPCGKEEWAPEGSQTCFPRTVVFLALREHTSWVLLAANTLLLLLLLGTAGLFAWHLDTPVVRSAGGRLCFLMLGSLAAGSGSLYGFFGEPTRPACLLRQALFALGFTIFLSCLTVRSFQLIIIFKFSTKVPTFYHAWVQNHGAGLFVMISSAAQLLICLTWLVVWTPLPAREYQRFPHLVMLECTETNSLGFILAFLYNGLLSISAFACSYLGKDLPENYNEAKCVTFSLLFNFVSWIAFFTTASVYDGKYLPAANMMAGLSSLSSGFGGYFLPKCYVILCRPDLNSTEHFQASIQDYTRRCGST
T1 sequence (Q7RTX0 21-852): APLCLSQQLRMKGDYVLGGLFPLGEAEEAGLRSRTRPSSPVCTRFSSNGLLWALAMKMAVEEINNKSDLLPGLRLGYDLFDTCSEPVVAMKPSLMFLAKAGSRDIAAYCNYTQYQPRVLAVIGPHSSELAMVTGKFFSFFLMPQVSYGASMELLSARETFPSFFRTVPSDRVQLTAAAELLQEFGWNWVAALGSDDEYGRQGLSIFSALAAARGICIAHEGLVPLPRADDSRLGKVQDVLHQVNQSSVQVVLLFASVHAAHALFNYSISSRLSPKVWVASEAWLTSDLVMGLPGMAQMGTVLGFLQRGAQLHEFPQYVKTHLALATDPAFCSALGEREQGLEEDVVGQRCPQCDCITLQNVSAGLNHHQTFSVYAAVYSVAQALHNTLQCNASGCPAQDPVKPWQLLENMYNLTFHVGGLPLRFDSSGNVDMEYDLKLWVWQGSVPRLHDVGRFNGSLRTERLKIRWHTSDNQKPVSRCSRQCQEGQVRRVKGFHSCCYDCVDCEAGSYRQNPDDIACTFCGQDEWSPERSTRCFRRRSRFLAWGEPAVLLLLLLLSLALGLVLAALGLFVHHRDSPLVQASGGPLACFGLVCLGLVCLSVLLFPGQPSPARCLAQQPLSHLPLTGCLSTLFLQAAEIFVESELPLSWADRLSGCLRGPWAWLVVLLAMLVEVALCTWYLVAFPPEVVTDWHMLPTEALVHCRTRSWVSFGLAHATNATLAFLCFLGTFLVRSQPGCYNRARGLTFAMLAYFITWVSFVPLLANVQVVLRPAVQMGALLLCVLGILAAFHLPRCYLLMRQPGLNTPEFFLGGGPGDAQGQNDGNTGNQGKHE
The test is described as follows: In vitro hT1R1/hT1R3 umami taste receptor activation assay (FLIPR, dose response). The test is classed as cell-based.

Where [1] appears, read: Table A, Umami Amides, read-out: Umami EC50.
[2] abbreviates: read-out: EC50 for activation of a hT1R1/hT1R3 umami receptor expressed in an HEK293 cell line.
Where [3] appears, read: Table C, Umami Ureas, read-out: Umami EC50.

Turning to `CCOc1ccc(/C=C/C(=O)N[C@@H](COC)CC(C)C)cc1` [Example D8, (R,E)-3-(4-ethoxyphenyl)-N-(1-methoxy-4-methylpentan-2-yl)acrylamide], the EC50 (Table D, Umami Acrylamides, read-out: Umami EC50) stood at 940 nM. As to `CCCC(CCC)NC(=O)c1ccc2ncsc2c1` [Example A22, Benzothiazole-6-carboxylic acid (1-propyl-butyl)-amide], the EC50 under setting [1] was 1580 nM. Still for that read-out and setting: the same measure for `COc1cc(C(=O)N[C@@H]2CCCc3ccccc32)nc(OC)n1` [Example A114, (R)-2,6-dimethoxy-N-(1,2,3,4-tetrahydronaphthalen-1-yl)pyrimidine 4-carboxamide]: 2350 nM. Consider `CCCC(CCC)NC(=O)c1ccc(OC)cc1C#N` [Example 97, 2-cyano-N-(heptan-4-yl)-4-methoxybenzamide], for which the EC50 under setting [2] amounted to 1390 nM. For `COC(=O)c1ccc(NC(=O)c2c(Cl)ccc(Cl)c2OC)cc1` [Example A2, 4-(3,6-Dichloro-2-methoxy-benzoylamino)-benzoic acid methyl ester], the EC50 under setting [1] came out at 930 nM. The same measure, in the same setting: under `COc1ccc(CNC(=O)c2ccncc2-n2cccc2)c(OC)c1` [Example A66, N-(2,4-dimethoxybenzyl)-3-(1H-pyrrol-1-yl)isonicotinamide] stands 290 nM; under `COC(=O)[C@@H](CC(C)C)NC(=O)c1cc(C)cc(C)c1` [Example A85, (R)-methyl 2-(3,5-dimethylbenzamido)-4-methylpentanoate], 530 nM. As to `CCC(CC(C)C)NC(=O)c1ccc(C)c(C)c1` (centres unmarked) [Example 70, 3,4-dimethyl-N-(5-methylhexan-3-yl)benzamide], the EC50 under setting [2] stood at 170 nM.

Consider `CCCC(CCC)NC(=O)c1ccc2nc(CC)oc2c1` [Example A27, 2-ethyl-N-(heptan-4-yl)benzo[d]oxazole-6-carboxamide], for which the EC50 under setting [1] was determined as 1610 nM.

For the compound `COC(=O)[C@@H](CC(C)C)NC(=O)c1oc2ccccc2c1C` [Example 33, (R)-methyl 4-methyl-2-(3-methylbenzofuran-2-carboxamido)pentanoate], the EC50 under setting [2] was determined as 1180 nM. `CCCC(CCC)NC(=O)c1cnc(C)c(C)n1` [Example 95, 5,6-dimethylpyrazine-2-carboxylic acid (1-propylbutyl)amide]: the EC50 under setting [2] was found to be 1010 nM.

For `COc1ccc(C(=O)NC(C)c2ccc(C)cc2)cc1Cl` (centres unmarked) [Example A100, 3-chloro-4-methoxy-N-(1-p-tolylethyl)benzamide], the EC50 under setting [1] is 1100 nM. Still for that read-out and setting: under `COC[C@@H](CC(C)C)NC(=O)c1ccc(SC)c(C)c1` [Example A65, (R)-N-(1-methoxy-4-methylpentan-2-yl)-3-methyl-4-(methylthio)benzamide] stands 290 nM.

Regarding `CCCC(CCC)NC(=O)c1ccc(OC)c(OC)c1` [Example 65, 3,4-Dimethoxy-N-(1-propyl-butyl)-benzamide], under setting [2], the EC50 was determined as 360 nM. With `CCCC(CCC)NC(=O)c1cccc(SC)c1` [Example A118, N-(heptan-4-yl)-3-(methylthio)benzamide], under setting [1], the EC50 was determined as 30 nM.

`Cc1ccc(CNC(=O)C(=O)NCCc2ccccn2)o1` [Example 152, N-((5-Methylfuran-2-yl)methyl)-N2-(2-(pyridin-2-yl)ethyl)oxalamide]: under setting [2], the EC50 turned out to be 4900 nM. Turning to `COc1cccc(C(=O)NC2CCCc3ccccc32)c1O` (centres unmarked) [Example A87, 2-hydroxy-3-methoxy-N-(1,2,3,4-tetrahydronaphthalen-1-yl)benzamide], the EC50 under setting [1] amounted to 540 nM. `COc1ccc(C(=O)NCCSCc2ccco2)cc1C` [Example 106, N-(2-(furan-2-ylmethylthio)ethyl)-4-methoxy-3-methylbenzamide]: the EC50 under setting [2] is 5600 nM.

As for `COc1ccc(CNC(=O)c2sccc2C)c(OC)c1` [Example 108, 3-Methyl-thiophene-2-carboxylic acid 2,4-dimethoxy-benzylamide], under setting [2], the EC50 is 5600 nM. As for `CCCC(CCC)NC(=O)Nc1ccc(Cl)cc1Cl` [Example C22, 1-(2,4-dichlorophenyl)-3-(heptan-4-yl)urea], under setting [3], the EC50 amounted to 180 nM. As to `O=C(NCCc1ccccn1)C(=O)NCc1nc2ccccc2s1` [Example 151, N-(Benzo[d]thiazol-2-ylmethyl)-N′-(2-(pyridin-2-yl)ethyl)oxalamide], the EC50 under setting [2] was found to be 4400 nM. On the same count and under the same terms, the same measure for `CCC(CC)NC(=O)c1ccc(OC)c(C)c1` [Example 119, 4-methoxy-3-methyl-N-(pentan-3-yl)benzamide]: 400 nM; for `CCOc1ccc(/C=C/C(=O)NC(CC)CC)cc1` [Example 82, 3-(4-Ethoxy-phenyl)-N-(1-ethyl-propyl)-acrylamide]: 1350 nM. Turning to `COc1ccc(C(=O)NC(CO)CC(C)C)cc1Cl` (centres unmarked) [Example A98, 3-chloro-N-(1-hydroxy-4-methylpentan-2-yl)-4-methoxybenzamide], under setting [1], the EC50 was 880 nM. Regarding `O=C(NCCc1ccccn1)C(=O)NCc1ccccc1O` [Example 148, N-(2-Hydroxybenzyl)-N′-(2-(pyridin-2-yl)ethyl)oxalamide], the EC50 under setting [2] was 3110 nM.

On to `CCCCC(CCCC)NC(=O)c1ccc2c(c1)OCO2` [Example A41, N-(nonan-5-yl)benzo[d][1,3]dioxole-5-carboxamide], for which the EC50 under setting [1] was found to be 700 nM. Consider `CCCC(CCC)NC(=O)Nc1ccccc1CC` [Example C9, 1-(2-ethylphenyl)-3-(heptan-4-yl)urea], for which the EC50 under setting [3] was 1420 nM.

As to `CC1CCCC(NC(=O)c2ccc3c(c2)OCO3)C1C` (centres unmarked) [Example 4, N-(2,3-dimethylcyclohexyl)benzo[d][1,3]dioxole-5-carboxamide], under setting [2], the EC50 turned out to be 450 nM. As for `COc1ccc(C(=O)N[C@H]2CCCc3ccccc32)cc1C` [Example A109, (S)-4-methoxy-3-methyl-N-(1,2,3,4-tetrahydronaphthalen-1-yl)benzamide], the EC50 under setting [1] is 80 nM.

For `CC(C)Oc1ccccc1CNC(=O)C(=O)NCCc1ccccn1` [Example B4, N1-(2-isopropoxybenzyl)-N2-(2-(pyridin-2-yl)ethyl)oxalamide], the EC50 (Table B, Umami Oxalamides, read-out: Umami EC50) turned out to be 1220 nM.

On to `CCC(CC(C)C)NC(=O)/C=C/c1ccc(OC)cc1` (centres unmarked) [Example 75], for which, under setting [2], the EC50 was found to be 240 nM. For the compound `CCCC(CCC)NC(=O)c1ccc(Br)o1` [Example A30, 5-bromo-N-(heptan-4-yl)furan-2-carboxamide], under setting [1], the EC50 was determined as 490 nM. Same read-out and setting: the same measure for `CCC(COC)NC(=O)c1cc2cc(Cl)ccc2o1` (centres unmarked) [Example A11, 5-chloro-N-(1-methoxybutan-2-yl)benzofuran-2-carboxamide]: 1050 nM. Same read-out and setting: under `CCCC(CC(C)C)NC(=O)c1cc2cc(C)ccc2o1` (centres unmarked) [Example A20, 5-methyl-N-(2-methylheptan-4-yl)benzofuran-2-carboxamide] stands 1320 nM. The same measure, in the same setting: the same measure for `COC(=O)[C@@H](CC(C)C)NC(=O)c1ccc2ccccc2c1` [Example A40, (R)-methyl 2-(2-naphthamido)-4-methylpentanoate]: 370 nM; for `CCCC(CCC)NC(=O)c1cccc(OC)c1O` [Example A84, N-(heptan-4-yl)-2-hydroxy-3-methoxybenzamide]: 530 nM.

Consider `CC(C)CC(COP(=O)(O)O)NC(=O)c1ccc2c(c1)OCO2` (centres unmarked) [Example 11, 2-(benzo[d][1,3]dioxole-6-carboxamido)-4-methylpentyl dihydrogen phosphate], for which, under setting [2], the EC50 amounted to 10900 nM.

Regarding `CCCC(CCC)NC(=O)c1ccc(OCCOC)c(C)c1` [Example 59, N-(heptan-4-yl)-4-(2-methoxyethoxy)-3-methylbenzamide], under setting [2], the EC50 was found to be 210 nM.

Values taken from US20060045953A1 (priority 2004, published 2006).
